PMC5538626, “Structural and functional analysis of the GABARAP interaction motif (GIM)” (EMBO Reports, 2017)
Marks after values point to notes of the source that are not given here. Ends that are not written are not given here.

What was measured:
LC3B = molecular target: T1, LC3B (Homo sapiens, UniProt Q9GZQ8); assay: ITC titration of PLEKHM1-LIR peptides into LC3B; assay type: binding; conditions: for ΔH: VP-ITC, 50 mM Na2HPO4, 100 mM NaCl
T1 construct: modified Ub-leader (ubiquitin fusion leader) (N); made in house; host or cells: E. coli NEB T7 Express
Method: (§1) The genes for the truncated LC3A^2–121, LC3C^8–125, GABARAP^2–117 and GABARAP‐L1^2–117 proteins were cloned into pET30ΔSE vector between the BamHI and XhoI sites using previously established protocols 38. The chimeric constructs of the PLEKHM1‐LIR attached to the LC3A, GABARAP and GABARAP‐L1 proteins were prepared by inserting the oligonucleotide sequence corresponding to the PLEKHM1‐LIR peptide (P^629[…]^638) and glycine–serine linker into the BamHI site of the pET30ΔSE vector, placing the PLEKHM1‐LIR at the N‐terminal of the mature chimeric protein (similar to 31, 38). For the expression of human LC3 and GABARAP proteins for ITC and NMR experiments, plasmids with appropriate modified Ub‐leaders in pET vectors were used 39. Gene, encoding PLEKHM1‐LIR peptide, was ordered as synthetic oligonucleotides (Eurofins Genomics GmbH) and cloned into the pET39_Ub63_ vector 39 by NcoI–BamHI restriction sites. After TEV cleavage, the resulting peptide has the amino acid sequence GAMG‐P^629[…]^642, where the first four residues (GAMG) are the cloning artefact.
(§2) The chimeric constructs were expressed as a His‐tag fusion protein in E. coli BL21(DE3) cells. The cells were induced with 0.3 mM IPTG at OD600 0.6 for 16 h at 26°C. The cell pellets were lysed using mechanical sonication in lysis buffer (20 mM Tris–HCl pH 9.0, 100 mM NaCl, 10 mM imidazole, supplemented with 0.1% Triton X‐100). The proteins were purified using Ni‐NTA beads (GE Healthcare) and the His‐tag was cleaved using thrombin (Invitrogen) at room temperature for 16 h. The last step was gel filtration chromatography using a Superdex S200/300 GL column (GE Healthcare). The proteins were concentrated using spin concentrators (Vivaspin). For ITC and NMR studies, the non‐labelled and stable isotopes labelled LC3 and GABARAP proteins were obtained based on the protocols described elsewhere 30, 39. Here, E. coli NEB T7 Express culture transformed with corresponding plasmids were grown till OD600 nm = 1.0 and protein expression was induced with 0.2 mM IPTG. The cultures were incubated at 25°C for 8–12 h before cell harvesting. Isolation and purification procedures were similar to those reported in Ref. 22, 40. Before experiments, all proteins and peptides were equilibrated with a buffer containing 50 mM Na2HPO4, 100 mM NaCl at pH 7.0, and supplied with 5 mM protease inhibitor cocktail.
(§3) The protocol for preparation of non‐labelled and ^13C,^15N‐labelled PLEKHM1‐LIR peptide was slightly modified to achieve highest yield of the peptide. The 50 ml M9 culture was inoculated with NEB T7 cell transformed with pET39_Ub63‐PLEKHM1‐LIR plasmid and grown overnight at 37°. The collected cells were resuspended in 2 l of either LB or M9 media contained 1.5 g ^15N‐labelled NH4Cl and 3.0 g of ^13C‐labelled glucose. The cultures were grown at 37° till A(600 nm) = 0.9 and supplied with 1 mM of IPTG to induce Ub63‐PLEKHM1‐LIR overexpression (3 h at 37°). After that cells were harvested by centrifugation, re‐suspended in buffer contained 50 mM Tris–HCl pH = 7.9, 200 mM NaCl, 5% glycerol, 0.1 mg/ml DNase A and 4 mM protease inhibitor cocktail. After cell lysis by French press, debris was removed by centrifugation and clear supernatant was applied onto the column contained Ni‐NTA Sepharose equilibrated with the loading buffer (50 mM Tris–HCl pH = 7.9, 250 mM NaCl, 1% glycerol and 20 mM imidazole). Elution was performed with 400 mM imidazole in the same buffer. An aliquot of pure Ub63‐PLEKHM1‐LIR fractions was further purified by gel filtration on Superdex75 26 × 60 column for control ITC and analytical size exclusion chromatography experiments, remaining fusion protein was processed with the TEV‐protease and PLEKHM1‐LIR peptide was purified to 95% purity by reverse Ni‐NTA chromatography and followed gel filtration on Superdex75 26 × 60 column. Peak maximum of peptide was detected at […] (void volume 115 ml). Pure peptide was concentrated in Amicon concentrators with cut‐off of 3 kDa (> 95% retention). […]

GABARAP = molecular target: T2, GABARAP (Homo sapiens, UniProt O95166); assay: ITC titration of PLEKHM1-LIR peptides into GABARAP; assay type: binding; conditions: for ΔH: VP-ITC, one-site model, 0.4 mM peptide into 0.020 mM protein, 50 mM Na2HPO4, 100 mM NaCl
T2 construct: modified Ub-leader (ubiquitin fusion leader) (N); made in house; host or cells: E. coli NEB T7 Express
Method: as §1, §2, §3

[1] = ITC, 25°C, one-site model, 0.4 mM peptide into 0.020 mM protein, pH 7.0
[2] = weak interaction: N fixed to 1 upon fitting

T2 sequence (O95166 whole entry, the tested form may be a part): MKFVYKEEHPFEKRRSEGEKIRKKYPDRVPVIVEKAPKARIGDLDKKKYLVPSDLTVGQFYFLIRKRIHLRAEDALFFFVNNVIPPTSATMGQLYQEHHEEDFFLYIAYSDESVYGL

Sequence	Kd (LC3B; ITC, 25°C, pH 7.0, 0.4 mM peptide into 0.020 mM protein, one-site model) [nM]	ΔH (LC3B; [1]) [kcal/mol]	ΔG (LC3B; ITC, 25°C, pH 7.0) [kcal/mol]	ΔS (LC3B; ITC, 25°C, pH 7.0)	−T × ΔS (LC3B; ITC, 25°C, pH 7.0) [kcal/mol]	N (number of binding sites) (LC3B; [2])	ΔH (GABARAP; ITC, 25°C, pH 7.0) [kcal/mol]	ΔG (GABARAP; ITC, 25°C, pH 7.0) [kcal/mol]	ΔS (GABARAP; ITC, 25°C, pH 7.0)	−T × ΔS (GABARAP; ITC, 25°C, pH 7.0)	N (number of binding sites) (GABARAP; [2])	KA (LC3B; ITC, 25°C, pH 7.0)	N (number of binding sites) (LC3B; ITC, 25°C, pH 7.0)	KA (GABARAP; ITC, 25°C, pH 7.0)	N (number of binding sites) (GABARAP; ITC, 25°C, pH 7.0)
EDEWCILQY [WCIL]	300														
GAMGPQQEDEAVNVQYPD [PLEKHM1‐LIR W635A]		-0.8 ± 0.1	-5.44	+15.4 cal mol^−1 K^−1	-4.59	1 ^a	-1.1 ± 0.1	-5.40	+14.4 cal mol^−1 K^−1	-4.29 kcal/mol	1 ^a				
GAMGPQQEDEWCILQYPD [PLEKHM1‐LIR VNV‐CIL]		-7.9 ± 0.1	-8.84	+3.30 cal mol^−1 K^−1	-0.98		-9.2 ± 0.1	-9.62	+1.49 cal mol^−1 K^−1	-0.44 kcal/mol		3.03 ± 0.27 ×10^6 M^−1	1.06 ± 0.01	11.3 ± 0.38 ×10^6 M^−1	1.07 ± 0.01
GAMGPQQEDEWGNVQYPD [PLEKHM1‐LIR V636G]		-1.7 ± 0.1	-5.42	+12.4 cal mol^−1 K^−1	-3.70	1 ^a	-7.5 ± 0.1	-5.83	−5.66 cal mol^−1 K^−1	+1.69 kcal mol^−1	1 ^a			0.02 ± 0.00 ×10^6 M^−1	
GAMGPQQEDEWVGVQYPD [PLEKHM1‐LIR N637G]		-1.4 ± 0.1	-5.87	+15.0 cal mol^−1 K^−1	-4.47	1 ^a	-6.7 ± 0.1	-6.97	+1.07 cal mol^−1 K^−1	-0.32 kcal/mol		0.02 ± 0.01 ×10^6 M^−1		0.13 ± 0.01 ×10^6 M^−1	1.17 ± 0.04
